Laboratory results as given in patent US20050154033A1, “Methods of using zonisamide as an adjunctive therapy for partial seizures” (Eisai Co., Ltd, priority 2004, published 2005).

Assays:
[1] = system: cultured mouse spinal cord neurons; details: 10-30 μg/mL, cited from earlier work
rat hippocampal slices = details: 10-30 μg/mL; cited from earlier work
[2] = parameters: species or system patients (human); details: human, in vivo
Source text: The pharmacovigilance data that were collected, reviewed and analyzed provided the following information in respect of the incidence of NMS. To date, a total of 3 cases (two adult and one pediatric) fulfill the criteria of potential neuroleptic malignant syndrome. These cases were reviewed in detail for evaluation of possible safety signals. They were all deemed serious, and in all cases, the patients recovered with appropriate treatment.
Cases ZONI000813 and ZONI000929 are adult cases from Japan. In both cases the patients carried a diagnosis of Parkinson's disease (PD) and were enrolled in a double blind, placebo controlled […] study of zonisamide as a potential treatment for PD (Protocol AD810N-202-1). […]
Estimates of exposure, based upon retail and mail order prescriptions, indicate that the number of unique patients taking zonisamide capsules in the U.S. is about 37,276 (total prescriptions per year/average number of prescriptions per patient per year less a calculated percentage decrease based on estimated annual dropouts) in the time between approval in 2000 and December 2002 . […] Similarly, the incidences of NMS estimated herein are unlikely to be higher than calculated. Based on the exposure data and number of NMS cases, the incidence of NMS in the U.S. and Japan is calculated to be about 1:37,276 unique patients and 1:592,588 unique patients, respectively.

carbonic anhydrase = details: relative to acetazolamide; cited from earlier work
[3] = system: GABA/benzodiazepine receptor ionophore complex; details: in vitro; does not produce changes in chloride flux; cited from earlier work
T-type Ca^2+ currents = details: in vitro; cited from earlier work
[4] = system: dopaminergic and serotonergic neurotransmission; details: in vivo microdialysis; cited from earlier work
sodium channels = details: in vitro; cited from earlier work
[5] = upon reaching a stable dose or following dosage adjustment; cited from earlier work

Question: For `NS(=O)(=O)Cc1noc2ccccc12` [zonisamide, 1,2-benzisoxazole-3-methanesulfonamide], which “postsynaptic GABA or glutamate responses” value ([1]; cultured mouse spinal cord neurons) is on record?
Answer: Its value is “without affecting”.

Question: And the synaptically-driven electrical activity [1]?
Answer: The synaptically-driven electrical activity was “suppresses synaptically-driven electrical activity”.

Question: What about the “neuronal or glial uptake of [3H]-GABA” value (rat hippocampal slices) of the same compound?
Answer: The value was “without affecting”.

Question: And the “cases fulfilling the criteria of potential neuroleptic malignant syndrome” value [2]?
Answer: The value was 3 cases.

Question: What about the “incidence of NMS” value [2] of the same compound?
Answer: The value was “about 1:37,276 unique patients”.

Question: And the “carbonic anhydrase inhibition compared to acetazolamide” value (carbonic anhydrase)?
Answer: The value was 1/50.

Question: What about the “binding to GABA/benzodiazepine receptor ionophore complex” value [3] of the same compound?
Answer: The value was “binds to the GABA/benzodiazepine receptor ionophore complex in an allosteric fashion”.

Question: What about the “effect on T-type Ca2+ currents” value (T-type Ca^2+ currents) of the same compound?
Answer: Its value is “reduces voltage-dependent, transient inward currents”.

Question: What about the effect on neurotransmission [4] of the same compound?
Answer: Its effect on neurotransmission is “facilitates both dopaminergic and serotonergic neurotransmission”.

Question: And the “effect on sodium channels” value (sodium channels)?
Answer: The value was “blocks sodium channels”.

Question: And the “time required to achieve steady-state levels” value [5]?
Answer: Its value is “up to two weeks”.
